Results as given in US20120245137A1 (Zalicus Pharmaceuticals Ltd., priority 2009, published 2012).

Key:
Format in all cases: cell-based
[1] = target: human α1G T-type channels (Homo sapiens, UniProt O43497); assay: T-type calcium channel block, whole cell patch clamp, α1G; conditions: HEK cells stably expressing human α1G; mainly non-inactivated protocol; values above 10,000 nM represented as 10000
Method: (§1) T-type calcium channel blocking activity was assayed in human embryonic kidneycells, HEK 293 (Invitrogen), stably transfected with the T-type calcium channel subunits. Briefly, cells were cultured in Dulbecco's modified eagle medium (DMEM) supplemented with 10% fetal bovine serum, 200 U/ml penicillin, and 0.2 mg/mL streptomycin at 37° C. with 5% CO2. At 85% confluency, cells were split with 0.25% trypsin/1 mM EDTA and plated at 10% confluency on glass coverslips. At 12 hours, the medium was replaced, and the cells stably transfected using a standard calcium phosphate protocol and the appropriate calcium channel cDNA's. Fresh DMEM was supplied, and the cells transferred to 28° C./5% CO2.
(§2) Standard patch-clamp techniques were employed to identify blockers of T-type currents. Briefly, previously described HEK cell lines stably expressing human α1G, α1H, and α1I T-type channels were used for all the recordings (passage #: 4-20, 37° C., 5% CO2). Whole cell patch clamp experiments were performed using an Axopatch 200B amplifier (Axon Instruments, Burlingame, Calif.) linked to a personal computer equipped with pCLAMP software. Data were analyzed using Clampfit (Axon Instruments) and SigmaPlot 4.0 (Jandel Scientific). To obtain T-type currents, plastic dishes containing semi-confluent cells were positioned on the stage of a ZEISS AXIOVERT S100 microscope after replacing the culture medium with external solution (Table 2). Whole-cell patches were obtained using pipettes (borosilicate glass with filament, O.D.: 1.5 mm, I.D.: 0.86 mm, 10 cm length), fabricated on a SUTTER P-97 puller with resistance values of ˜5 MΩ (Table 3).
(§3) T-type currents were reliably obtained by using two voltage protocols: • “non-inactivating,” and • “inactivation.”
(§4) Test compounds were dissolved in external solution, 0.1-0.01% DMSO. After ˜10 minutes rest, they were applied by gravity close to the cell using a WPI microfil tubing. The “non-inactivated” pre-pulse was used to examine the resting block of a compound. The “inactivated” protocol was employed to study voltage-dependent block.

[2] = target: human α1H T-type channels (Homo sapiens, UniProt O95180); assay: T-type calcium channel block, whole cell patch clamp, α1H; conditions: HEK cells stably expressing human α1H; mainly non-inactivated protocol; values above 10,000 nM represented as 10000
Method: as §1, §2, §3, §4

[3] = target: N-type calcium channel subunits (α1B, α2δ, and β3a) (Homo sapiens, UniProt Q00975); assay: Block of Cav2.2 channel, whole cell voltage clamp, manual and PatchXpress; conditions: Table 5; table follows Assay Example 3 (whole cell voltage clamp / PatchXpress); assay not given
How it was run: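 Percent block taken as current amplitude ratio with versus without compound, applied in rising doses; IC50 fitted where one cell received multiple doses. Protocol: 50 ms pulses to +20 mV at 0.067 Hz from […] or −90 mV holding; P/n leak subtraction, no junction-potential correction; manual and PatchXpress recordings.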

human α1H T-type channels, sequence (O95180 whole entry): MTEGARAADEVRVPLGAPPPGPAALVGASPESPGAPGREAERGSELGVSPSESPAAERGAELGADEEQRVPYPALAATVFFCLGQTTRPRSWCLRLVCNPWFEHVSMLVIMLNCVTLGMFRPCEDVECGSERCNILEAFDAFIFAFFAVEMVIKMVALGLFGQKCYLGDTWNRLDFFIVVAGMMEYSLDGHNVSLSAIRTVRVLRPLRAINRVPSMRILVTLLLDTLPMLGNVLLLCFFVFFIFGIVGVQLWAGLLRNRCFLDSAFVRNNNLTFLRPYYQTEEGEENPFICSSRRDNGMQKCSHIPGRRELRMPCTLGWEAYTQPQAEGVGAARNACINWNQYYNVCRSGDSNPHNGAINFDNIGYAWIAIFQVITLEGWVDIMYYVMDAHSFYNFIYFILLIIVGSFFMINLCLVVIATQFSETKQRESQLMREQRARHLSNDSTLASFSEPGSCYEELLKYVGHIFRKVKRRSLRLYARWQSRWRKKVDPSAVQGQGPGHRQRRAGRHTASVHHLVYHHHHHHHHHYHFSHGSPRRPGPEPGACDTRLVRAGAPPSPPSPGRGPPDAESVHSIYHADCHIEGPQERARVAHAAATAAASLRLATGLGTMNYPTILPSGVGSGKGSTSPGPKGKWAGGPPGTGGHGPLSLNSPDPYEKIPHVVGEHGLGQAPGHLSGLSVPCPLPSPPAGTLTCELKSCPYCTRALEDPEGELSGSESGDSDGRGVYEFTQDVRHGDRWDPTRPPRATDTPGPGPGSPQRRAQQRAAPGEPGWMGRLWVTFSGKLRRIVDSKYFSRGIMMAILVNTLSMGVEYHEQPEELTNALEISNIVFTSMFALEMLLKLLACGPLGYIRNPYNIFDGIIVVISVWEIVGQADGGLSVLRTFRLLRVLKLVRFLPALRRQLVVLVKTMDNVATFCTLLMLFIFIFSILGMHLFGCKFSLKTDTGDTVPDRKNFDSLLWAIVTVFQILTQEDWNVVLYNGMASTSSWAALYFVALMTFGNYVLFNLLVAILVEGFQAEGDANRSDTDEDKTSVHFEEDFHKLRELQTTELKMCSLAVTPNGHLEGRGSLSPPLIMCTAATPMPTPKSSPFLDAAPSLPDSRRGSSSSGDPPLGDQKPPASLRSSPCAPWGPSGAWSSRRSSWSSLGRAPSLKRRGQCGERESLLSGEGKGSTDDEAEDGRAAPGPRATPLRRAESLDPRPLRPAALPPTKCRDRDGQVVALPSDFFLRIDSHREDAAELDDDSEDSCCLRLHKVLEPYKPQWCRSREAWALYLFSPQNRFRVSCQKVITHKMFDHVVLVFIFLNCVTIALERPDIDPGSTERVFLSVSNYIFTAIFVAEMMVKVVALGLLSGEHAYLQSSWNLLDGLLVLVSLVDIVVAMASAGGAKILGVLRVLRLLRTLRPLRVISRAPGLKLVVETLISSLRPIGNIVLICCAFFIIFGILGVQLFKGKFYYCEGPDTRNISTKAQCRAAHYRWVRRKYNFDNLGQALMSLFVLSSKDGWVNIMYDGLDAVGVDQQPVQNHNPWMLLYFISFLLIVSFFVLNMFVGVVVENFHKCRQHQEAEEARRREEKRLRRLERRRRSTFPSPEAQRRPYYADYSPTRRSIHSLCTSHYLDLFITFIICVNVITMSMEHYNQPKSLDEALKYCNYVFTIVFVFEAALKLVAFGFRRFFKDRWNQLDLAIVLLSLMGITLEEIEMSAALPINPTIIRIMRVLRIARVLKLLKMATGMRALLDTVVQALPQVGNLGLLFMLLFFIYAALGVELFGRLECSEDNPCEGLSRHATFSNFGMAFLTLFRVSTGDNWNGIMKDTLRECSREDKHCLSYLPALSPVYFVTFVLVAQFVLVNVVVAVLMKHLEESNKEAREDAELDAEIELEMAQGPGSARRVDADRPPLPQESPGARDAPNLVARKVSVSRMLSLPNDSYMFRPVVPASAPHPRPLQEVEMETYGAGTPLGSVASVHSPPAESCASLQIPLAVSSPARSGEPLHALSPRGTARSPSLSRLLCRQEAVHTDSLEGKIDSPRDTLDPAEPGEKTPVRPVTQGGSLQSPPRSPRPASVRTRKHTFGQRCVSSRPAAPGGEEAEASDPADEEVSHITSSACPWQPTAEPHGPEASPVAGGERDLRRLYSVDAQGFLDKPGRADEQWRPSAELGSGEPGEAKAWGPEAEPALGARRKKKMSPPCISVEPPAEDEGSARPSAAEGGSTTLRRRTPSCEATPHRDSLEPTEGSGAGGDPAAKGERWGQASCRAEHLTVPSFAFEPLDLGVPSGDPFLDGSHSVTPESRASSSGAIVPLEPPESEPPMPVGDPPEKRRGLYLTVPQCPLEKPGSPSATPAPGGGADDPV
human α1G T-type channels, sequence (O43497 whole entry): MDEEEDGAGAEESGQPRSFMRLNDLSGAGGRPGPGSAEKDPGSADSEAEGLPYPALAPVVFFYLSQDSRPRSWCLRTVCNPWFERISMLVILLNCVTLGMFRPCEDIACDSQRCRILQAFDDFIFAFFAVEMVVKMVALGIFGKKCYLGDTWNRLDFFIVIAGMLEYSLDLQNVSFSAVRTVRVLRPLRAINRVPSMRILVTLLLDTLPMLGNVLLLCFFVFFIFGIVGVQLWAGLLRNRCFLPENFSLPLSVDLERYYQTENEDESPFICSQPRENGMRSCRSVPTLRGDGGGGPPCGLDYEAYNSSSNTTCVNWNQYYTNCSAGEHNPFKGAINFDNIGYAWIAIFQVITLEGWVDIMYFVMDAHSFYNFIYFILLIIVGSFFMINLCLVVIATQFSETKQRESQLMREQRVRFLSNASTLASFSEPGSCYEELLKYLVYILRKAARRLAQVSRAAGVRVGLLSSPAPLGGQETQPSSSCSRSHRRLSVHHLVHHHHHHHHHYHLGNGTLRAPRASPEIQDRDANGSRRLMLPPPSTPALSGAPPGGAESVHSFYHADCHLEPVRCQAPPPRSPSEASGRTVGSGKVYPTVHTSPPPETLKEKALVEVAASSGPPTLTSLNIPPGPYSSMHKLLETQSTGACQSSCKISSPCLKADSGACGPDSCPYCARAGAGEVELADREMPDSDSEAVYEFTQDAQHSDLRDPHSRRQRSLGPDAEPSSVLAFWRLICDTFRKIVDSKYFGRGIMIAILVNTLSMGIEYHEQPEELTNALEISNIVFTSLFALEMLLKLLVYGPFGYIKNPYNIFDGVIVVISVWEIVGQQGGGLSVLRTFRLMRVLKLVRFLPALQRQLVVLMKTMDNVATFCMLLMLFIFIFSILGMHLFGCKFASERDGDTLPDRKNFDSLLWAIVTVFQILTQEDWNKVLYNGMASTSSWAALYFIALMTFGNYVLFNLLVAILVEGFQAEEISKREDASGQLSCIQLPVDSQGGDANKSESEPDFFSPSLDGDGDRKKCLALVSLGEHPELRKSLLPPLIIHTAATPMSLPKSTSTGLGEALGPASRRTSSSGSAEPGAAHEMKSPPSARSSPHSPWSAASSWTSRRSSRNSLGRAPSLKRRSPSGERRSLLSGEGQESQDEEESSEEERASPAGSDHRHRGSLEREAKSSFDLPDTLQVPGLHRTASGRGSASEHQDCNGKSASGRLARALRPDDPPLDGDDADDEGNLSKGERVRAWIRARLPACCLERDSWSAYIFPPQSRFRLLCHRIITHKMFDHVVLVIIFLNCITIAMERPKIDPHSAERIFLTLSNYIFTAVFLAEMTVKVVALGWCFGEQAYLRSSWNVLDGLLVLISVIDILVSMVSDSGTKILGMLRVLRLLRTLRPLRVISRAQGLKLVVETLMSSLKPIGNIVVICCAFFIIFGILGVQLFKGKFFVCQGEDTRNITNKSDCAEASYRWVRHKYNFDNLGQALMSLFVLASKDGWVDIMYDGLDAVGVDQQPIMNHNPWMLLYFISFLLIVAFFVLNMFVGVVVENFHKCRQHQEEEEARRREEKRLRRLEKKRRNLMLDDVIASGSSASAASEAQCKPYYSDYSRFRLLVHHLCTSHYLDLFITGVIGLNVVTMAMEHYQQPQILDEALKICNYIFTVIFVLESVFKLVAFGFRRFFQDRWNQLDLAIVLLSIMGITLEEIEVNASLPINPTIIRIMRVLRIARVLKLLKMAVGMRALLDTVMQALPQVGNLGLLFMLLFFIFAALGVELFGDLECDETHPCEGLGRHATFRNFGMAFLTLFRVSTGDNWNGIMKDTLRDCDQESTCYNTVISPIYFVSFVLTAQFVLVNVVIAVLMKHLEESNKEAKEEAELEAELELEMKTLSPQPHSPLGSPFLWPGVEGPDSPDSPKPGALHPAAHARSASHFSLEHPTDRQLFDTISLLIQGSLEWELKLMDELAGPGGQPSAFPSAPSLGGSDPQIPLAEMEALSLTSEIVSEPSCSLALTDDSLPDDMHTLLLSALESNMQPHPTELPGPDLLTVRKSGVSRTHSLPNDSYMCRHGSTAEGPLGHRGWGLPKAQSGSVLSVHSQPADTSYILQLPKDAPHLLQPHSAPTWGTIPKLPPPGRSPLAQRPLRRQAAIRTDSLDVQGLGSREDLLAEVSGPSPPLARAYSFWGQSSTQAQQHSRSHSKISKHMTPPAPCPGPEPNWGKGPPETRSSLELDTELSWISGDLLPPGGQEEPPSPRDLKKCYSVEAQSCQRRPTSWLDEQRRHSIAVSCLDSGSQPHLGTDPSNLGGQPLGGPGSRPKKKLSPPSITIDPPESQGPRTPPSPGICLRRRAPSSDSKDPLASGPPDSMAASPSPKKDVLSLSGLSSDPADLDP

IC50 [1] [nM] | IC50 [2] [nM] | IC50 [3] [nM] | Compound
– | > 10000 | 1510 | CCN(CC)C(=O)CN[C@H]1CC[C@@H](S(=O)(=O)c2cccc(C(F)(F)F)c2)CC1 [Compound 51, N,N-diethyl-2-((1S,4S)-4-(3-(trifluoromethyl)phenylsulfonyl)cyclohexylamino)acetamide]
– | > 10000 | 1650 | O=C(N[C@H]1CC[C@H](S(=O)(=O)c2cccc(C(F)(F)F)c2)CC1)c1cc(C(F)(F)F)ccn1 [Compound 61, 4-(trifluoromethyl)-N-((1R,4R)-4-(3-(trifluoromethyl)phenylsulfonyl)cyclohexyl)picolinamide]
– | > 10000 | 550 | Cn1cc(C(=O)N[C@H]2CC[C@H](S(=O)(=O)c3cccc(C(F)(F)F)c3)CC2)c(C(F)(F)F)n1 [Compound 64, 1-methyl-3-(trifluoromethyl)-N-((1R,4R)-4-(3-(trifluoromethyl)phenylsulfonyl)cyclohexyl)-1H-pyrazole-4-carboxamide]
– | > 10000 | 1720 | O=C(CN[C@H]1CC[C@H](S(=O)(=O)c2cccc(C(F)(F)F)c2)CC1)NCC(F)(F)F [Compound 68, N-(2,2,2-trifluoroethyl)-2-((1R,4R)-4-(3-(trifluoromethyl)phenylsulfonyl)cyclohexylamino)acetamide]
– | > 10000 | 240 | CC1(NC(=O)c2cc(F)cc(Cl)c2)CCC(F)(S(=O)(=O)c2cccc(C(F)(F)F)c2)CC1 (centres unmarked) [Compound 93, 3-chloro-5-fluoro-N-(4-fluoro-1-methyl-4-(3-(trifluoromethyl)phenylsulfonyl)cyclohexyl)benzamide]
3670 | 3500 | – | O=C(N[C@H]1CC[C@H](CS(=O)(=O)c2cccc(C(F)(F)F)c2)CC1)c1cc(F)cc(Cl)c1 [Compound 101, 3-chloro-5-fluoro-N-((1R,4R)-4-((3-(trifluoromethyl)phenylsulfonyl)methyl)cyclohexyl)benzamide]
> 10000 | 2480 | – | O=C(N[C@H]1CC[C@H](CS(=O)(=O)c2cccc(C(F)(F)F)c2)CC1)C1CCOCC1 [Compound 105, N-((1R,4R)-4-((3-(trifluoromethyl)phenylsulfonyl)methyl)cyclohexyl)tetrahydro-2H-pyran-4-carboxamide]
– | > 10000 | 2710 | O=C(N[C@H]1CC[C@H](CS(=O)(=O)c2cccc(C(F)(F)F)c2)CC1)c1cc(F)cc(C(F)(F)F)c1 [Compound 107, 3-fluoro-5-(trifluoromethyl)-N-((1R,4R)-4-((3-(trifluoromethyl)phenylsulfonyl)methyl)cyclohexyl)benzamide]
> 10000 | 8360 | – | O=C(N[C@H]1CC[C@H](CS(=O)(=O)c2cccc(C(F)(F)F)c2)CC1)c1cc(C(F)(F)F)n[nH]1 [Compound 112, 3-(trifluoromethyl)-N-((lR,4R)-4-((3-(trifluoromethyI)phenylsulfonyl)methyl)cyclohexyl)-1H-pyrazole-5-carboxamide]
– | > 10000 | 580 | O=C(CN[C@H]1CC[C@H](CS(=O)(=O)c2cccc(C(F)(F)F)c2)CC1)Nc1ccccn1 [Compound 120, N-(pyridin-2-yl)-2-((1R,4R)-4-((3-(trifluoromethyl)phenylsulfonyl)methyl)cyclohexylamino)acetamide]
690 | 990 | – | CS(=O)(=O)c1ccc(C(=O)N[C@H]2CC[C@H](S(=O)(=O)c3cccc(C(F)(F)F)c3)CC2)c(Cl)c1 [Compound 122, 2-chloro-4-(methylsulfonyl)-N-((1R,4R)-4-(3-(trifluoromethyl)phenylsulfonyl)cyclohexyl)benzamide]
– | > 10000 | 250 | CC(C)(C)S(=O)(=O)c1ccsc1C(=O)N[C@H]1CC[C@H](CS(=O)(=O)c2cccc(C(F)(F)F)c2)CC1 [Compound 178, 3-(tert-butylsulfonyl)-N-((1R.4R)-4-((3-(trifluoromethyl)phenylsulfonyl)methyl)cyclohexyl)thiophene-2-carboxamide]
– | > 10000 | 130 | CC(C)(C(=O)N[C@H]1CC[C@@](F)(S(=O)(=O)c2cc(F)cc(C(F)(F)F)c2)CC1)S(=O)(=O)c1cccc(C(F)(F)F)c1 [Compound 292, N-((1S,4S)-4-fluoro-4-(3-fluoro-5-(trifluoromethyl)phenylsulfonyl)cyclohexyl)-2-methyl-2-(3-(trifluoromethyl)phenylsulfonyl) propanamide]
– | > 10000 | 3760 | Cc1nc(S(=O)(=O)N[C@H]2CC[C@@](F)(S(=O)(=O)c3cccc(C(F)(F)F)c3)CC2)cn1C [Compound 294]
– | > 10000 | 1230 | CC1(NC(=O)c2ccc(OC(F)(F)F)cc2)CCC(S(=O)(=O)c2cccc(C(F)(F)F)c2)CC1 (centres unmarked) [Compound 315, N-(1-methyl-4-(3-(trifluoromethyl)phenylsulfonyl)cyclohexyl)-4-(trifluoromethoxy)benzamide]
– | > 10000 | 1920 | Cn1nc(C(F)(F)F)cc1C(=O)N[C@H]1CC[C@@H](S(=O)(=O)c2cc(F)cc(C(F)(F)F)c2)CC1 [Compound 321, N-((1S,4S)-4-(3-fluoro-5-(trifluoromethyl)phenylsulfonyl)cyclohexyl)-1-methyl-3-(trifluoromethyl)-1Hpyrazole-5-carboxamide]
– | 1480 | 330 | O=C(N[C@H]1CC[C@@](F)(S(=O)(=O)c2cc(F)cc(C(F)(F)F)c2)CC1)c1cc(F)cc(Cl)c1 [Compound 326, 3-chloro-5-fluoro-N-((1S,4S)-4-fluoro-4-(3-fluoro-5-(trifluoromethyl)phenylsulfonyl)cyclohexyl) benzamide]
– | > 10000 | 370 | O=C(NC[C@H]1C[C@H](S(=O)(=O)c2cccc(C(F)(F)F)c2)C1)c1ccnc(C(F)(F)F)n1 [Compound 362, 2-(trifluoromethyl)-N-(((1R,3R)-3-(3-(trifluoromethyl)phenylsulfonyl)cyclobutyl)methyl)pyrimidine-4-carboxamide]
– | > 10000 | 310 | COc1cc(C(=O)NC[C@H]2C[C@H](S(=O)(=O)c3cccc(C(F)(F)F)c3)C2)cc(Cl)n1 [Compound 363, 2-chloro-6-methoxy-N-(((1R,3R)-3-(3-(trifluoromethyl)phenylsulfonyl)cyclobutyl)methyl)isonicotinamide]
– | > 10000 | 1470 | COc1cc(C(=O)NC[C@H]2C[C@@H](S(=O)(=O)c3cccc(C(F)(F)F)c3)C2)cc(Cl)n1 [Compound 380, 2-chloro-6-methoxy-N-(((1S,3S)-3-(3-(trifluoromethyl)phenylsulfonyl)cyclobutyl)methyl)isonicotinamide]
– | > 10000 | 590 | O=C(NC[C@H]1C[C@@H](S(=O)(=O)c2cccc(C(F)(F)F)c2)C1)c1cc(F)cc(Cl)c1 [Compound 381, 3-chloro-5-fluoro-N-(((1S,3S)-3-(3-(trifluoromethyl)phenylsulfonyl)cyclobutyl)methyl)benzamide]
– | > 10000 | 3330 | O=C(Nc1ccc(Oc2ccc(Cl)cc2)cc1)[C@H]1C[C@H](S(=O)(=O)c2cccc(C(F)(F)F)c2)C1 [Compound 404, (1R,3R)-N-(4-(4-chlorophenoxy)phenyl)-3-(3-(trifluoromethyl)phenylsulfonyl)cyclobutane carboxamide]
– | > 10000 | 960 | O=C(CN[C@H]1C[C@H](S(=O)(=O)c2cccc(C(F)(F)F)c2)C1)NC1CCC(F)(F)CC1 [Compound 428, N-(4,4-ditluorocyclohexyl)-2-((1R,3R)-3-(3-(trifluoromethyl)phenylsulfonyl)cyclobutylamino) acetamide]
– | > 10000 | 220 | CC([C@H]1C[C@H](NC(=O)c2ccc(F)c(C(F)(F)F)c2)C1)S(=O)(=O)c1cccc(C(F)(F)F)c1 (stereo partly drawn) [Compound 433, 4-fluoro-3-(trifluoromethyl)-N-((1R,3R)-3-((R)-1-(3-(trifluoromethyl)phenylsulfonyl)ethyl)cyclobutyl)benzamide]

Compound | IC50 [1] [nM] | IC50 [2] [nM] | IC50 [3] [nM]
1-(trifluoromethyl)-N-((1R,4R)-4- ((3- (trifluoromethyl)phenylsulfonyl) methyl)cyclohexyl) cyclobutanecarboxamide [Compound 109] | > 10000 | > 10000 | –
